{"source": "patent US20060286139A1", "about": "“Polymeric drug release system for medical devices” (priority 2003, published 2006)", "assay": "Drug elution from dual-coated stents (17β-estradiol in PEP94 bottom layer, dexamethasone in PEP90 top layer) into aqueous release medium, HPLC analysis", "type": "physicochemical", "conditions": "for Percentage Released: bottom layer PEP94, aqueous release medium 37° C.; for Total Microgrammes Released: bottom layer PEP94, loading approx 147 μg, aqueous release medium 37° C.", "method": "This example describes the preparation and elution of stents comprising 17β-estradiol and dexamethasone each contained within a specific ratio of PVB/PnVPA\nA coating solution was prepared made up of PEP94 and 17β-estradiol in a blend of chloroform and acetone (80:20 by weight), so that in terms of total solids 25% was 17β-estradiol, 75% polymer.\nA second coating solution was prepared made of PEP 90 and dexamethasone in a mixture of chloroform and acetone (80:20 by weight), so that in terms of total solids 25% was dexamethasone, 75% polymer.\nThe stents were weighed, spray coated in a ratio of 3:1 (estradiol: dexamethasone) with the respective formulations such that the bottom layer comprised PEP94 with 17β-estradiol and the top layer PEP90 with dexamethasone. The stents were then dried overnight at 40° C. under vacuum.\nUpon weighing the average coating weight of the stents was 811 μg yielding drug loadings of approx 147 μg±17 μg for 17β-estradiol and 57 μg±16 μg for dexamethasone.\nEach stent was placed on a hook and suspended in a vial containing 8 ml of an aqueous release medium with a 5 mm magnetic flea. The vials were placed on a multipoint stirrer set at 1000 rpm and incubated at 37° C. After a given time interval (ranging from 1 hour to several days), the stents were transferred to fresh aliquots of release medium and replaced on the stirrer to resume agitation. The solution containing dexamethasone/17β-estradiol was set aside for analysis.\nAnalysis of the samples was carried out using HPLC (Agilent 1100 series)."}
{"smiles": "C[C@]12CC[C@@H]3c4ccc(O)cc4CC[C@H]3[C@@H]1CC[C@@H]2O", "note": "[17β-estradiol]", "values": [{"measurement": "Percentage Released", "setting": "time 1 hour", "value": 5.1, "unit": "%"}, {"measurement": "Percentage Released", "setting": "time 7 hours", "value": 10.5, "unit": "%"}, {"measurement": "Percentage Released", "setting": "time 24 hours", "value": 17.1, "unit": "%"}, {"measurement": "Total Microgrammes Released", "setting": "time 1 hour", "value": 7.5, "unit": "µg"}, {"measurement": "Total Microgrammes Released", "setting": "time 7 hours", "value": 15.5, "unit": "µg"}, {"measurement": "Total Microgrammes Released", "setting": "time 24 hours", "value": 25.1, "unit": "µg"}]}
